US20230123585A1, “COMPOSITIONS AND METHODS FOR TREATING OR PREVENTING CANCER USING DEUBIQUITINASE INHIBITORS” (The University of Chicago, priority 2020, published 2023)

Assays:
[1] = test system: pluripotency transcripts in R-WT mESCs; experiment: Turnover of m^6A-labeled pluripotency transcripts by qPCR after actinomycin D in mESCs; assay type: cell-based, mouse; conditions: 10 μM PD0325901, 5 μg/ml actinomycin D
From the text: FIGS. 4A-4E: Phosphorylation of METTL3/WTAP by ERK Facilitates Resolution of Pluripotency. (A) LC-MS/MS quantification of the m^6A/A ratio in mRNA of mESC stable transfectants. (B) Representative flow cytometry analyses of mESC stable transfectants for the activity of alkaline phosphatase (AP) and expression of stage-specific embryonic antigen-1 (SSEA-1). (C) qPCR analysis of pluripotency genes in R-3A2A versus R-WT mESCs. (D) Relative levels of Nanog, measured by qPCR, at the indicate times after 5 μg/ml actinomycin D treatment. mRNA levels were monitored in R-WT (black), R-WT with 10 μM PD0325901 (green), and R-3A2A (red) mESC. (E) qPCR analysis for pluripotency and differentiation markers expression after 8 days of embryonic body (EB) induction. Error bars indicated SD (n=3). (See also FIG. 12.)
FIGS. 12A-12I: Phosphorylation of METTL3/WTAP by ERK Facilitates Resolution of Pluripotency. (A) Representative phase-contrast microscopy showing colony size of R-3A2A versus R-WT mESC cells. (B) Cell growth of R-WT and R-3A2A mESCs were measured by sulforhodamine B dye (SRB assay). […] (D-H) Relative levels of Zfp42, Klf2, Sox2, Lefty1, and Pou5f 1, measured by qPCR, at the indicate times after 5 μg/ml actinomycin D treatment. mRNA levels were monitored in R-WT (black), R-WT with 10 μM PD0325901 (green), and R-3A2A (red) mESCs. […]

ubiquitination of METTL3 = experiment: Ubiquitination of METTL3 in A375 cells transfected with HA-ubiquitin (IP anti-METTL3, immunoblot anti-HA); assay type: cell-based, human; conditions: 10 μM MG-132 and PD0325901 for 8 h
Experimental: FIGS. 11A-11G: USP5 is Required for ERK-Mediated METTL3 Stabilization. (A) A375 cells transfected with HA-ubiquitin (ub) were treated with 10 μM MG-132 and MEK inhibitor PD0325901 for 8 h. The ubiquitination of METTL3 was detected by IP with anti-METTL3 and immunoblot with anti-HA. (B) After 8 h treatment with 10 μM PD0325901 with or without 10 μM MG-132, cell lysates from A375 cells were analyzed by immunoblot. (C) A375 cells were treated with various concentrations of PD0325901 for 1 h. Cell lysates were subjected to IP with METTL3 antibody followed by immunoblot. (D) 293T cells transfected as indicated were subjected to IP/immunoblot analysis. (E) Immunofluorescence analysis of myc-METTL3 (green) in mESC stable transfectants. DAPI (blue) was used to mark the nucleus. (F) Lysates of 293T cells transfected as indicated were subjected to IP with anti-Flag antibody followed by immunoblot. (G) Immunofluorescence analysis of 293T cells co-transfected with myc-METTL3 (green), Flag-USP5 (red) with or without constitutively active B-RAF.
FIGS. 14A-14I: Phosphorylation of the m^6A Methyltransferase Complex May Affect Tumorigenesis. […] (B) LC-MS/MS quantification of the m^6A/A ratio in mRNA of melanoma cell lines. (C) After 8 h treatment with 10 μM PD0325901 or 0.1 μM tramentib, cell lysates from HCT-116 cells were analyzed by immunoblot. […] The ubiquitination of METTL3 was detected by IP with anti-METTL3 and immunoblot with anti-HA. (F) After 8 hr treatment with 10 μM EOAI3402143 (EOAI) or 30 μM vialinin A, cell lysates from HCT-116 cells were analyzed by immunoblot. […] (I) LC-MS/MS quantification of the m^6A/A ratio in mRNA of breast cancer cell lines.
Immunoprecipitation, immunoblotting, and in vitro kinase assay. […] Primary antibodies were detected by HRP-linked secondary antibodies (Cell Signaling) together with SuperSignal West Pico Plus chemiluminescent substrate (Thermo Scientific) and imaged in a FluorChem R system (ProteinSimple).

O=C(NOC[C@H](O)CO)c1ccc(F)c(F)c1Nc1ccc(I)cc1F [PD0325901]
turnover of m^6A-labeled pluripotency transcripts after transcription arrest [1]: delayed turnover
ubiquitination of METTL3 (ubiquitination of METTL3): increased
